In US11708348B2, “Protease inhibitors for treatment of coronavirus infections” (The Scripps Research Institute, priority 2021, dated 2023):
Like-named read-outs stand apart in the source and are kept apart here.

Test system: SARS-CoV-2 strain USA-WA1/2020
Test: microbe, parasite or virus in culture
Type: cell-based
Conditions: Severe acute respiratory syndrome coronavirus 2, HeLa-ACE2, 24 h, read-out: EC50, uM (Hela)
[1] = HeLa-ACE2 cells, SARS-CoV-2 infection, 24 h
[2] = HeLa-ACE2 cells, SARS-CoV-2 infection, 24 h, class symbols

SMILES | EC50 [1] | EC50 [2] | further results
CCC[C@@H](O)C(=O)N1C[C@@H]2CCC[C@@H]2[C@H]1C(=O)N[C@@H](C[C@@H]1CCNC1=O)C(=O)COC(F)(F)F [Compound 425, (1S,3aR,6aS)-2-((R)-2-hydroxypentanoyl)-N-((S)-3-oxo-1-((S)-2-oxopyrrolidin-3-yl)-4-(trifluoromethoxy)butan-2-yl)octahydrocyclo-penta[c]pyrrole-1-carboxamide] | 0.05 to 0.2 µM |  | 
O=C1NCC[C@H]1C[C@H](NC(=O)[C@@H]1CC2(CC2)CN1C(=O)C1(O)CCCCC1)C(=O)COC(F)(F)F [Compound 424, (S)-5-(l-hydroxycyclohexane-1-carbonyl)-N-((S)-3-oxo-1-((S)-2-oxopyrrolidin-3-yl)-4-(trifluoromethoxy)butan-2-yl)-5-azaspiro[2.4]heptane-6-carboxamide] | 0.05 to 0.2 µM |  | 
CC(C)(C)NC(=O)C(=O)N1CC2(CC2)C[C@H]1C(=O)N[C@@H](C[C@@H]1CCNC1=O)C(=O)COC(F)(F)F [Compound 502, (S)-5-(2-(tert-butylamino)-2-oxoacetyl)-N-((S)-3-oxo-1-((S)-2-oxopyrrolidin-3-yl)-4-(trifluoromethoxy)butan-2-yl)-5-azaspiro[2.4]-heptane-6-carboxamide] | < 0.05 µM |  | 
CC(=O)N1CCC(NC(=O)C(=O)N[C@@H](CC(C)C)C(=O)N[C@@H](C[C@@H]2CCNC2=O)C(=O)COc2c(F)c(F)cc(F)c2F)CC1 [Compound 140, Nl-(l-acetylpiperidin-4-yl)-N2-((S)-4-methyl-1-oxo-1-(((S)-3-oxo-1-((S)-2-oxopyrrolidin-3-yl)-4-(2,3,5,6-tetrafluorophenoxy)butan-2-yl)amino)pentan-2-yl)oxalamide] |  |  | EC50 ([…], cells given as a bound): > 1 µM
CC(C)C[C@H](NC(=O)C(=O)Nc1cc(F)c(Br)c(F)c1)C(=O)N[C@@H](C[C@@H]1CCNC1=O)C(=O)COc1c(F)c(F)cc(F)c1F [Compound 87, N1-(4-bromo-3,5-difluorophenyl)-N2-((S)-4-methyl-1-oxo-1-(((S)-3-oxo-1-((S)-2-oxopyrrolidin-3-yl)-4-(2,3,5,6-tetrafluorophenoxy)butan-2-yl)amino)pentan-2-yl)oxalamide] |  | 0.05 to 0.2 µM | 
O=C1NCC[C@H]1C[C@H](NC(=O)[C@@H]1[C@H]2CCC[C@H]2CN1C(=O)c1noc2cc(Cl)ccc12)C(=O)COC(F)(F)F [Compound 609, (1S,3aR,6aS)-2-(6-chlorobenzo[d]isoxazole-3-carbonyl)-N-((S)-3-oxo-1-((S)-2-oxopyrrolidin-3-yl)-4-(trifluoromethoxy)butan-2-yl)octahydrocyclopenta[c]pyrrole-1-carboxamide] | < 0.05 µM |  | 
CC(C)(C)C[C@H](NC(=O)[C@H]1CCCO1)C(=O)N[C@@H](C[C@@H]1CCNC1=O)C(=O)COC(F)(F)F [Compound 301, (R)-N-((S)-4,4-dimethyl-1-oxo-1-(((S)-3-oxo-1-((S)-2-oxopyrrolidin-3-yl)-4-(trifluoromethoxy)butan-2-yl)amino)pentan-2-yl)tetrahydrofuran-2-carboxamide] |  | < 0.05 µM | 
COc1cccc2[nH]c(C(=O)N[C@@H](CC(C)C)C(=O)N[C@@H](CC3CCNC3=O)C(=O)COP(=O)(c3ccccc3)c3ccccc3)cc12 (stereo partly drawn) [Compound 195, (3S)-3-((S)-2-(4-methoxy-1H-indole-2-carboxamido)-4-methylpentanamido)-2-oxo-4-(2-oxopyrrolidin-3-yl)butyl diphenylphosphinate] |  |  | EC50: 0.05 to 0.2 µM
CC(C)OCC(=O)N1CC2(CC2)C[C@H]1C(=O)N[C@@H](C[C@@H]1CCNC1=O)C(=O)COC(F)(F)F [Compound 647, (888S)-5-(2-isopropoxyacetyl)-N-((S)-3-oxo-1-((S)-2-oxopyrrolidin-3-yl)-4-(trifluoromethoxy)butan-2-yl)-5-azaspiro[2.4]heptane-6-carboxamide] | 0.05 to 0.2 µM |  | 
O=C1NCC[C@H]1C[C@H](NC(=O)[C@@H]1CC2(CC2)CN1C(=O)C1(O)CCCC1)C(=O)COC(F)(F)F [Compound 423, (S)-5-(l-hydroxycyclopentane-1-carbonyl)-N-((S)-3-oxo-1-((S)-2-oxopyrrolidin-3-yl)-4-(trifluoromethoxy)butan-2-yl)-5-azaspiro[2.4]heptane-6-carboxamide] | 0.05 to 0.2 µM |  | 
O=C1NCC[C@H]1C[C@H](NC(=O)[C@@H]1[C@H]2CCC[C@H]2CN1C(=O)c1noc2ccc(Cl)cc12)C(=O)COC(F)(F)F [Compound 659, (1S,3aR,6aS)-2-(5-chlorobenzo[d]isoxazole-3-carbonyl)-N-((S)-3-oxo-1-((S)-2-oxopyrrolidin-3-yl)-4-(trifluoromethoxy)butan-2-yl)octahydrocyclopenta[c]pyrrole-1-carboxamide] | < 0.05 µM |  | 
CC(C)C[C@H](NC(=O)c1cc2cc(F)ccc2[nH]1)C(=O)N[C@@H](C[C@@H]1CCNC1=O)C(=O)COP(=O)(c1ccccc1)c1ccccc1 [Compound 50, (S)-3-((S)-2-(5-fluoro-1H-indole-2-carboxamido)-4-methylpentanamido)-2-oxo-4-((S)-2-oxopyrrolidin-3-yl)butyl diphenylphosphinate] |  |  | EC50: 0.2 to 0.5 µM
O=C(N[C@@H](Cc1ccccc1)C(=O)N[C@@H](C[C@@H]1CCNC1=O)C(=O)COC(F)(F)F)c1cc(-c2ccccc2F)on1 [Compound 460, 5-(2-fluorophenyl)-N-((S)-1-oxo-1-(((S)-3-oxo-1-((S)-2-oxopyrrolidin-3-yl)-4-(trifluoromethoxy)butan-2-yl)amino)-3-phenylpropan-2-yl)isoxazole-3-carboxamide] | < 0.05 µM |  | 
O=C(Nc1ccccc1F)C(=O)N1[C@@H]2C[C@@H]2C[C@H]1C(=O)N[C@@H](C[C@@H]1CCNC1=O)C(=O)COC(F)(F)F [Compound 265, (1R,S 5R)-2-(2-((2-fluorophenyl)amino)-2-oxoacetyl)-N-((S)-3-oxo-1-((S)-2-oxopyrrolidin-3-yl)-4-(trifluoromethoxy)butan-2-yl)-2-azabicyclo-[3.1.0]-hexane-3-carboxamide] |  | 0.05 to 0.2 µM | 
CC(C)[C@H](O)C(=O)N1CC2(CC2)C[C@H]1C(=O)N[C@@H](C[C@@H]1CCNC1=O)C(=O)COC(F)(F)F [Compound 358, (S)-5-((S)-2-hydroxy-3-methylbutanoyl)-N-((S)-3-oxo-1-((S)-2-oxopyrrolidin-3-yl)-4-(trifluoromethoxy)butan-2-yl)-5-azaspiro-[2.4]heptane-6-carboxamide] |  | 0.05 to 0.2 µM | 
O=C1NCC[C@H]1C[C@H](NC(=O)[C@@H]1CC2(CC2)CN1C(=O)C12CC(F)(C1)C2)C(=O)COC(F)(F)F [Compound 627, (S)-5-(3-fluorobicyclo[1.1.1]pentane-1-carbonyl)-N-((S)-3-oxo-1-((S)-2-oxopyrrolidin-3-yl)-4-(trifluoromethoxy)butan-2-yl)-5-azaspiro[2.4]heptane-6-carboxamide] | 0.05 to 0.2 µM |  | 
CC(=O)N1CCN(C(=O)C(=O)N[C@@H](CC(C)C)C(=O)N[C@@H](C[C@@H]2CCNC2=O)C(=O)COc2c(F)c(F)cc(F)c2F)CC1 [Compound 104, (S)-2-(2-(4-acetylpiperazin-1-yl)-2-oxoacetamido)-4-methyl-N-((S)-3-oxo-1-((S)-2-oxopyrrolidin-3-yl)-4-(2,3,5,6-tetrafluorophenoxy)butan-2-yl)pentanamide] |  |  | EC50 (HeLa-ACE2 cells, SARS-CoV-2 infection, 24 h, cells given as a bound): > 1 µM
CC(C)C[C@H](NC(=O)C(=O)Nc1ccc(F)cc1F)C(=O)N[C@@H](C[C@@H]1CCNC1=O)C(=O)COc1c(F)c(F)cc(F)c1F [Compound 78, N1-(2,4-difluorophenyl)-N2-((S)-4-methyl-1-oxo-1-(((S)-3-oxo-1-((S)-2-oxopyrrolidin-3-yl)-4-(2,3,5,6-tetrafluorophenoxy)butan-2-yl)amino)pentan-2-yl)oxalamide] |  | < 0.05 µM | 
O=C1NCC[C@H]1C[C@H](NC(=O)[C@@H]1CC2(CC2)CN1C(=O)CNCC(F)(F)F)C(=O)COC(F)(F)F [Compound 672, (S)-N-((S)-3-oxo-1-((S)-2-oxopyrrolidin-3-yl)-4-(trifluoromethoxy)butan-2-yl)-5-((2,2,2-trifluoroethyl)glycyl)-5-azaspiro[2.4]heptane-6-carboxamide] | 0.05 to 0.2 µM |  | 
C=CCC(=O)N1CC2(CC2)C[C@H]1C(=O)N[C@@H](C[C@@H]1CCNC1=O)C(=O)COC(F)(F)F [Compound 689, (S)-5-(but-3-enoyl)-N-((S)-3-oxo-1-((S)-2-oxopyrrolidin-3-yl)-4-(trifluoromethoxy)butan-2-yl)-5-azaspiro[2.4]heptane-6-carboxamide] | 0.05 to 0.2 µM |  | 
O=C1NCC[C@H]1C[C@H](NC(=O)[C@@H]1CC2(CC2)CN1C(=O)[C@H](O)CC1CC1)C(=O)COC(F)(F)F [Compound 392, (S)-5-((R)-3-cyclopropyl-2-hydroxypropanoyl)-N-((S)-3-oxo-1-((S)-2-oxopyrrolidin-3-yl)-4-(trifluoromethoxy)butan-2-yl)-5-azaspiro[2.4]heptane-6-carboxamide] |  | 0.05 to 0.2 µM | 
CC(C)C[C@H](NC(=O)c1ccc2c(c1)OCO2)C(=O)N[C@@H](C[C@@H]1CCNC1=O)C(=O)COc1c(F)c(F)cc(F)c1F [Compound 24, N-((S)-4-methyl-1-oxo-1-(((S)-3-oxo-1-((S)-2-oxopyrrolidin-3-yl)-4-(2,3,5,6-tetrafluorophenoxy)butan-2-yl)amino)pentan-2-yl)benzo[d][l,3]dioxole-5-carboxamide] |  | 0.2 to 0.5 µM | 
CC(C)C[C@H](NC(=O)C(=O)NC1CCC(F)(F)CC1)C(=O)N[C@@H](C[C@@H]1CCNC1=O)C(=O)COc1c(F)c(F)cc(F)c1F [Compound 151, N^1-(4,4-difluorocyclohexyl)-N^2—((S)-4-methyl-1-oxo-1-(((S)-3-oxo-1-((S)-2-oxopyrrolidin-3-yl)-4-(2,3,5,6-tetrafluorophenoxy)butan-2-yl)amino)pentan-2-yl)oxalamide] |  | 0.05 to 0.2 µM | 
